Experimental data taken from patent US12077503B2, “Substituted cyclic amides and their use as herbicides” (FMC CORPORATION, priority 2015, dated 2024).

Tests used:
Format in all cases: in vivo
[1] = system: barnyardgrass (Echinochloa crus-galli); assay: Test A postemergence; conditions: for Barnyardgrass plant response rating: 125 g ai/ha, postemergence, visual injury rating on 0 to 100 scale (0 no effect, 100 complete control), approx. 10 d; for Plant response rating, Barnyardgrass: Postemergence, 500 g ai/ha, 0 to 100 scale where 0 is no effect and 100 is complete control
Source text: (§1) Seeds of plant species selected from barnyardgrass (Echinochloa crus-galli), Kochia (Kochia scoparia), ragweed (common ragweed, Ambrosia elatior), ryegrass, Italian (Italian ryegrass, Lolium multiflorum), crabgrass, large (Digitaria sanguinalis), giant foxtail (Setaria faberii), green foxtail (Setaria viridis), morningglory (Ipomoea spp.), pigweed (Amaranthus retroflexus), velvetleaf (Abutilon theophrasti), wheat (Triticum aestivum), and corn (Zea mays) were planted into a blend of loam soil and sand and treated preemergence with a directed soil spray using test chemicals formulated in anon-phytotoxic solvent mixture which included a surfactant.
(§2) At the same time, plants selected from these crop and weed species and also blackgrass (Alopecurus myosuroides), and Galium (catchweed bedstraw, Galium aparine) were planted in pots containing the same blend of loam soil and sand and treated with postemergence applications of test chemicals formulated in the same manner. Plants ranged in height from 2 to 10 cm and were in the one- to two-leaf stage for the postemergence treatment. Treated plants and untreated controls were maintained in a greenhouse for approximately 10 d, after which time all treated plants were compared to untreated controls and visually evaluated for injury. Plant response ratings, summarized in Table A, are based on a 0 to 100 scale where 0 is no effect and 100 is complete control. A dash (-) response means no test result.

[2] = system: wheat (Triticum aestivum); assay: Test A postemergence; conditions: for Wheat plant response rating: 125 g ai/ha, postemergence, visual injury rating on 0 to 100 scale (0 no effect, 100 complete control), approx. 10 d; for Plant response rating, Wheat: Postemergence, 500 g ai/ha, 0 to 100 scale where 0 is no effect and 100 is complete control
Source text: as §1, §2

corn (Zea mays) = assay: Test A postemergence; conditions: for Corn plant response rating: 125 g ai/ha, postemergence, visual injury rating on 0 to 100 scale (0 no effect, 100 complete control), approx. 10 d; for Plant response rating, Corn: Postemergence, 500 g ai/ha, 0 to 100 scale where 0 is no effect and 100 is complete control
Source text: as §1, §2

[3] = system: ragweed (common ragweed, Ambrosia elatior); assay: Test A postemergence; conditions: for Ragweed plant response rating: 125 g ai/ha, postemergence, visual injury rating on 0 to 100 scale (0 no effect, 100 complete control), approx. 10 d; for Plant response rating, Ragweed: Postemergence, 500 g ai/ha, 0 to 100 scale where 0 is no effect and 100 is complete control
Source text: as §1, §2

[4] = system: pigweed (Amaranthus retroflexus); assay: Test A postemergence; conditions: for Pigweed plant response rating: 125 g ai/ha, postemergence, visual injury rating on 0 to 100 scale (0 no effect, 100 complete control), approx. 10 d; for Plant response rating, Pigweed: Postemergence, 500 g ai/ha, 0 to 100 scale where 0 is no effect and 100 is complete control
Source text: as §1, §2

[5] = system: ryegrass, Italian (Italian ryegrass, Lolium multiflorum); assay: Test A postemergence; conditions: for Ryegrass, Italian plant response rating: 125 g ai/ha, postemergence, visual injury rating on 0 to 100 scale (0 no effect, 100 complete control), approx. 10 d; for Plant response rating, Ryegrass, Italian: Postemergence, 500 g ai/ha, 0 to 100 scale where 0 is no effect and 100 is complete control
Source text: as §1, §2

Kochia (Kochia scoparia) [6] = assay: Test A postemergence; conditions: for Kochia plant response rating: 125 g ai/ha, postemergence, visual injury rating on 0 to 100 scale (0 no effect, 100 complete control), approx. 10 d; for Plant response rating, Kochia: Postemergence, 500 g ai/ha, 0 to 100 scale where 0 is no effect and 100 is complete control
Source text: as §1, §2

[7] = system: giant foxtail (Setaria faberii); assay: Test A postemergence; conditions: for Foxtail, Giant plant response rating: 125 g ai/ha, postemergence, visual injury rating on 0 to 100 scale (0 no effect, 100 complete control), approx. 10 d; for Plant response rating, Foxtail, Giant: Postemergence, 500 g ai/ha, 0 to 100 scale where 0 is no effect and 100 is complete control
Source text: as §1, §2

[8] = system: Galium (catchweed bedstraw, Galium aparine); assay: Test A postemergence; conditions: for Galium plant response rating: 125 g ai/ha, postemergence, visual injury rating on 0 to 100 scale (0 no effect, 100 complete control), approx. 10 d; for Plant response rating, Galium: Postemergence, 500 g ai/ha, 0 to 100 scale where 0 is no effect and 100 is complete control
Source text: as §1, §2

[9] = system: blackgrass (Alopecurus myosuroides); assay: Test A postemergence; conditions: for Blackgrass plant response rating: 125 g ai/ha, postemergence, visual injury rating on 0 to 100 scale (0 no effect, 100 complete control), approx. 10 d; for Plant response rating, Blackgrass: Postemergence, 500 g ai/ha, 0 to 100 scale where 0 is no effect and 100 is complete control
Source text: as §1, §2

[10] = system: barnyardgrass (Echinochloa crus-galli); assay: Test A preemergence; conditions: Preemergence; for Plant response rating, Barnyardgrass: 125 g ai/ha, visual injury after approximately 10 d, 0 to 100 scale where 0 is no effect and 100 is complete control; for Barnyardgrass plant response rating (0 to 100 scale, 0 is no effect, 100 is complete control): 500 g ai/ha, visual injury approx. 10 d
Source text: as §1, §2

[11] = system: ragweed (common ragweed, Ambrosia elatior); assay: Test A preemergence; conditions: Preemergence; for Plant response rating, Ragweed: 125 g ai/ha, visual injury after approximately 10 d, 0 to 100 scale where 0 is no effect and 100 is complete control; for Ragweed plant response rating (0 to 100 scale, 0 is no effect, 100 is complete control): 500 g ai/ha, visual injury approx. 10 d
Source text: as §1, §2

[12] = system: pigweed (Amaranthus retroflexus); assay: Test A preemergence; conditions: Preemergence; for Plant response rating, Pigweed: 125 g ai/ha, visual injury after approximately 10 d, 0 to 100 scale where 0 is no effect and 100 is complete control; for Pigweed plant response rating (0 to 100 scale, 0 is no effect, 100 is complete control): 500 g ai/ha, visual injury approx. 10 d
Source text: as §1, §2

[13] = system: ryegrass, Italian (Italian ryegrass, Lolium multiflorum); assay: Test A preemergence; conditions: Preemergence; for Plant response rating, Ryegrass, Italian: 125 g ai/ha, visual injury after approximately 10 d, 0 to 100 scale where 0 is no effect and 100 is complete control; for Ryegrass, Italian plant response rating (0 to 100 scale, 0 is no effect, 100 is complete control): 500 g ai/ha, visual injury approx. 10 d
Source text: as §1, §2

Kochia (Kochia scoparia) [14] = assay: Test A preemergence; conditions: Preemergence; for Plant response rating, Kochia: 125 g ai/ha, visual injury after approximately 10 d, 0 to 100 scale where 0 is no effect and 100 is complete control; for Kochia plant response rating (0 to 100 scale, 0 is no effect, 100 is complete control): 500 g ai/ha, visual injury approx. 10 d
Source text: as §1, §2

[15] = system: giant foxtail (Setaria faberii); assay: Test A preemergence; conditions: Preemergence; for Plant response rating, Foxtail, Giant: 125 g ai/ha, visual injury after approximately 10 d, 0 to 100 scale where 0 is no effect and 100 is complete control; for Foxtail, Giant plant response rating (0 to 100 scale, 0 is no effect, 100 is complete control): 500 g ai/ha, visual injury approx. 10 d
Source text: as §1, §2

[16] = system: barnyardgrass (Echinochloa crus-galli); assay: Test B flooded paddy test; conditions: Flood, 250 g ai/ha; 0 to 100 scale where 0 is no effect and 100 is complete control; 13 to 15 d
Protocol: (§3) Plant species in the flooded paddy test selected from rice (Oryra sativa), sedge, umbrella (small-flower umbrella sedge, Cyperus difformis), ducksalad (Heteranthera limosa), and barnyardgrass (Echinochloa crus-galli) were grown to the 2-leaf stage for testing. At time of treatment, test pots were flooded to 3 cm above the soil surface, treated by application of test compounds directly to the paddy water, and then maintained at that water depth for the duration of the test. Treated plants and controls were maintained in a greenhouse for 13 to 15 d, after which time all species were compared to controls and visually evaluated. Plant response ratings, summarized in Table B, are based on a scale of 0 to 100 where 0 is no effect and 100 is complete control. A dash (-) response means no test result.

[17] = system: ducksalad (Heteranthera limosa); assay: Test B flooded paddy test; conditions: Flood, 250 g ai/ha; 0 to 100 scale where 0 is no effect and 100 is complete control; 13 to 15 d
Protocol: as §3

rice (Oryra sativa) = assay: Test B flooded paddy test; conditions: Flood, 250 g ai/ha; 0 to 100 scale where 0 is no effect and 100 is complete control; 13 to 15 d
Protocol: as §3

[18] = system: sedge, umbrella (small-flower umbrella sedge, Cyperus difformis); assay: Test B flooded paddy test; conditions: Flood, 250 g ai/ha; 0 to 100 scale where 0 is no effect and 100 is complete control; 13 to 15 d
Protocol: as §3

Structure (SMILES) | Barnyardgrass plant response rating [1] | Plant response rating, Barnyardgrass [1] | Wheat plant response rating [2] | Plant response rating, Wheat [2] | Corn plant response rating (corn (Zea mays)) | Plant response rating, Corn (corn (Zea mays)) | Ragweed plant response rating [3] | Plant response rating, Ragweed [3] | Pigweed plant response rating [4] | Plant response rating, Pigweed [4] | Ryegrass, Italian plant response rating [5] | Plant response rating, Ryegrass, Italian [5] | Kochia plant response rating (Kochia (Kochia scoparia) [6]) | Plant response rating, Kochia (Kochia (Kochia scoparia) [6]) | Foxtail, Giant plant response rating [7] | Plant response rating, Foxtail, Giant [7] | Galium plant response rating [8] | Plant response rating, Galium [8] | Blackgrass plant response rating [9] | Plant response rating, Blackgrass [9] | also measured
O=C1NCC(c2c(F)cccc2F)C1C(=O)Nc1ccc(F)cc1F (racemic) [Compound 517] | 20 | 30 | 0 | 0 | 0 | 0 | 0 | 0 | 0 | 0 | 0 | 0 | 0 | 0 | 0 | 0 | 0 | 0 | 0 | 0 | Plant response rating, Barnyardgrass [10]: 0; Barnyardgrass plant response rating (0 to 100 scale, 0 is no effect, 100 is complete control) [10]: 0; Plant response rating, Ragweed [11]: 0; Ragweed plant response rating (0 to 100 scale, 0 is no effect, 100 is complete control) [11]: 0; Plant response rating, Pigweed [12]: 0; Pigweed plant response rating (0 to 100 scale, 0 is no effect, 100 is complete control) [12]: 0; Plant response rating, Ryegrass, Italian [13]: 0; Ryegrass, Italian plant response rating (0 to 100 scale, 0 is no effect, 100 is complete control) [13]: 0; Plant response rating, Kochia (Kochia (Kochia scoparia) [14]): 0; Kochia plant response rating (0 to 100 scale, 0 is no effect, 100 is complete control) (Kochia (Kochia scoparia) [14]): 0; Plant response rating, Foxtail, Giant [15]: 0; Foxtail, Giant plant response rating (0 to 100 scale, 0 is no effect, 100 is complete control) [15]: 30; Plant response rating, Barnyardgrass [16]: 0; Plant response rating, Ducksalad [17]: 0; Plant response rating, Rice (rice (Oryra sativa)): 0; Plant response rating, Sedge, Umbrella [18]: 0
O=C1NCC(c2ccc(C(F)(F)F)c(F)c2)C1C(=O)Nc1ccccc1F (racemic) [Compound 521] | 90 | 90 | 20 | 50 | 30 | 40 | 0 | 0 | 40 | 50 | 20 | 40 | 0 | 20 | 70 | 90 | 50 | 60 | 30 | 40 | Plant response rating, Barnyardgrass [10]: 90; Barnyardgrass plant response rating (0 to 100 scale, 0 is no effect, 100 is complete control) [10]: 90; Plant response rating, Ragweed [11]: 40; Ragweed plant response rating (0 to 100 scale, 0 is no effect, 100 is complete control) [11]: 60; Plant response rating, Pigweed [12]: 60; Pigweed plant response rating (0 to 100 scale, 0 is no effect, 100 is complete control) [12]: 70; Plant response rating, Ryegrass, Italian [13]: 30; Ryegrass, Italian plant response rating (0 to 100 scale, 0 is no effect, 100 is complete control) [13]: 50; Plant response rating, Kochia (Kochia (Kochia scoparia) [14]): 0; Kochia plant response rating (0 to 100 scale, 0 is no effect, 100 is complete control) (Kochia (Kochia scoparia) [14]): 70; Plant response rating, Foxtail, Giant [15]: 90; Foxtail, Giant plant response rating (0 to 100 scale, 0 is no effect, 100 is complete control) [15]: 90; Plant response rating, Barnyardgrass [16]: 40; Plant response rating, Ducksalad [17]: 85; Plant response rating, Rice (rice (Oryra sativa)): 0; Plant response rating, Sedge, Umbrella [18]: 0
